One compound from patent US10766882B2, “1,2-naphthoquinone based derivative and method of preparing the same” (YUNGJIN PHARM. CO., LTD., priority 2013, dated 2020) can be followed below.

The subject of experiment [1] is Cells. The experiment is described as follows: Measurement of lactate change amount within cells. The experiment is classed as cell-based. Conditions: PCA extract of cells, lactate measured from supernatant (Megazyme, K-LATE). The procedure, abridged: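 Cells were extracted in 6% perchloric acid and centrifuged (13,000 rpm, 10 min), and the dried pellet was weighed. The supernatant was neutralised with 1 M KOH, brought up in 0.33 M potassium phosphate pH 7.5 and re-centrifuged. Lactate was measured in this supernatant with a commercial lactate kit.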

Experiment [2] deals with C57BL/6J Lep ob/ob mice. Put plainly: Weight loss effects in obese mice (ob/ob). It is filed as in vivo. Conditions: vs 0.1% SLS controls. The procedure, abridged: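 Male-unspecified C57BL/6J Lep ob/ob mice (6–15 weeks old, n=3 per group) on low-fat chow received compound by daily oral gavage (40–150 mg/kg, 10 ml/kg) for 6 days to 2 weeks, with 0.1% SLS vehicle as control. Body weight was recorded daily, gain calculated from day 1 to the day before termination, and food intake measured twice weekly.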

Setting [3] is: Exp. Ex. 3-1, FIG. 1: 10 week-old ob/ob mice, 40, 80, 120 mg/kg oral once every day, two weeks.
[4] abbreviates: Exp. Ex. 3-2, FIG. 2: 6 week-old ob/ob mice, 100 mg/kg oral.
Where [5] appears, read: Exp. Ex. 3-10, FIG. 13: 6 week-old ob/ob mice, 100 mg/kg oral, two weeks.
Setting [6] is: Exp. Ex. 3-11, FIG. 14: 6.5 week-old ob/ob mice, 100 mg/kg oral, one week.
Setting [7] is: Exp. Ex. 3-12, FIG. 15: 6 week-old ob/ob mice, 100 mg/kg oral, two weeks.
[8] abbreviates: Exp. Ex. 3-13, FIG. 16: 6 week-old ob/ob mice, 100 mg/kg oral, one week.

Consider `CC(C)c1nc2c([nH]1)C(=O)C(=O)c1ccccc1-2` [Example 1, 2-isopropyl-1H-naphtho[2,1-d]imidazole-4,5-dione], for which the “Lactate change amount within cells (nmol/mg cell)” value in experiment [1] is 6.1 nmol/mg cell. Also, the intake amount entry in experiment [2] (setting [3]) was “significantly decreased”; in experiment [2] (setting [4]), “significantly decreased”; in experiment [2] (setting [5]) it was “significantly decreased in some sections”; in experiment [2] (setting [6]) it was “significantly decreased in some sections”; in experiment [2] (setting [7]), “significantly decreased in some sections”; in experiment [2] (setting [8]), “significantly decreased in some sections”. In addition, the weight change result in experiment [2] (setting [3]) is “significantly decreased”; in experiment [2] (setting [4]), “significantly decreased”; in experiment [2] (setting [5]), “significantly decreased in some sections”; in experiment [2] (setting [6]), “significantly decreased in some sections”; in experiment [2] (setting [7]), “significantly decreased in some sections”; in experiment [2] (setting [8]), “significantly decreased in some sections”. For the same compound, the weight increase ratio result is listed as “significantly decreased” in experiment [2] (setting [3]); “significantly decreased” in experiment [2] (setting [4]); “significantly decreased in some sections” in experiment [2] (setting [5]); “significantly decreased in some sections” in experiment [2] (setting [6]); “significantly decreased in some sections” in experiment [2] (setting [7]); “significantly decreased in some sections” in experiment [2] (setting [8]).
